According to ChEMBL document CHEMBL5291721, “A preclinical secondary pharmacology resource illuminates target-adverse drug reaction associations of marketed drugs” (Nat Commun, 2023):

How the values were obtained:
[1] = molecular target: Voltage-gated inwardly rectifying potassium channel KCNH2 (Homo sapiens, UniProt Q12809); assay type: functional
[2] = molecular target: Vasopressin V2 receptor (Homo sapiens, UniProt P30518)
[3] = molecular target: Histamine H2 receptor (Homo sapiens, UniProt P25021); assay type: functional, cell-based
[4] = molecular target: cGMP-inhibited 3',5'-cyclic phosphodiesterase 3A (Homo sapiens, UniProt Q14432); assay type: functional
[5] = molecular target: Neuronal acetylcholine receptor subunit alpha-4 (Homo sapiens, UniProt P43681)
[6] = molecular target: Histamine H1 receptor (Homo sapiens, UniProt P35367)
[7] = molecular target: Glutamate receptor ionotropic, NMDA 1 (Rattus norvegicus, UniProt P35439)
[8] = molecular target: 5-hydroxytryptamine receptor 2B (Homo sapiens, UniProt P41595); assay type: functional, cell-based
[9] = molecular target: Beta-2 adrenergic receptor (Homo sapiens, UniProt P07550)
[10] = molecular target: T1, 5-hydroxytryptamine receptor 3A (Homo sapiens, UniProt P46098); assay type: functional
T1 sequence (P46098 whole entry): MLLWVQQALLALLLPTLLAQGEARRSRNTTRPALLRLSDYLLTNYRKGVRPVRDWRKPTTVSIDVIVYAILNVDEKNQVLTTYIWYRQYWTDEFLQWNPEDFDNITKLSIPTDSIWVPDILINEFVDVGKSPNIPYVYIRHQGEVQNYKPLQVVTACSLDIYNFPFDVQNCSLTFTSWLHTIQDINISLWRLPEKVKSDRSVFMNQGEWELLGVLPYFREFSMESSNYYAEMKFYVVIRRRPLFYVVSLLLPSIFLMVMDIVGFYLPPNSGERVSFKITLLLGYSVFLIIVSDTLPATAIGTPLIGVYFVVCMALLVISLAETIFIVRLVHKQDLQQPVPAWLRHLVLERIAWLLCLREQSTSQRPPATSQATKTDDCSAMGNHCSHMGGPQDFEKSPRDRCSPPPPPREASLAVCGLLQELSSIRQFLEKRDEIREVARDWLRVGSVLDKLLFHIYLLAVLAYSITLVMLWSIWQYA

[11] = molecular target: 3',5'-cyclic-AMP phosphodiesterase 4D (Homo sapiens, UniProt Q08499); assay type: functional
[12] = molecular target: Gamma-aminobutyric acid receptor subunit alpha-1 (Rattus norvegicus, UniProt P62813)
[13] = molecular target: Adenosine receptor A2a (Homo sapiens, UniProt P29274)
[14] = molecular target: Sodium-dependent dopamine transporter (Homo sapiens, UniProt Q01959)
[15] = molecular target: T2, Glucocorticoid receptor (Homo sapiens, UniProt P04150)
T2 sequence (P04150 whole entry): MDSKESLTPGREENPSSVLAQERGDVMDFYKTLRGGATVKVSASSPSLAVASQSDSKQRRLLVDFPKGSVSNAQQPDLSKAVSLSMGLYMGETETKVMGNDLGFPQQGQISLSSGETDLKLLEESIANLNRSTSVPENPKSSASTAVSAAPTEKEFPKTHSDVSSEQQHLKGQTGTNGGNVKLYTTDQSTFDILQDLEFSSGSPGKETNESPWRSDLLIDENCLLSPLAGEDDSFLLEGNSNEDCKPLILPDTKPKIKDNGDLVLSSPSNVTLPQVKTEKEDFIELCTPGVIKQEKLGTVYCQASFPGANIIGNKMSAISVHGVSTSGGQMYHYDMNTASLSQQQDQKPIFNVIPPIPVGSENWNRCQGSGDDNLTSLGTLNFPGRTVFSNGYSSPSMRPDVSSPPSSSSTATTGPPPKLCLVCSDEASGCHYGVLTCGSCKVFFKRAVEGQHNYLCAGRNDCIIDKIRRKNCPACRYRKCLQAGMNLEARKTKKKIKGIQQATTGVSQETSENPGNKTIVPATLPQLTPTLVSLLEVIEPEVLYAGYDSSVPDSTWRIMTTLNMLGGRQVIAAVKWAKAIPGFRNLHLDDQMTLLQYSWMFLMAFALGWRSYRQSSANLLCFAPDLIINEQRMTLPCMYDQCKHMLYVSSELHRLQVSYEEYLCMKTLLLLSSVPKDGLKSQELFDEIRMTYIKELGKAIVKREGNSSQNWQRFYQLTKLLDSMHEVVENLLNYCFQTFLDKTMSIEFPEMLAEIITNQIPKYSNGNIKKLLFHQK

[16] = molecular target: Motilin receptor (Homo sapiens, UniProt O43193)
Also: assay procedure not described here.

5-hydroxytryptamine receptor 2B, sequence (P41595 whole entry): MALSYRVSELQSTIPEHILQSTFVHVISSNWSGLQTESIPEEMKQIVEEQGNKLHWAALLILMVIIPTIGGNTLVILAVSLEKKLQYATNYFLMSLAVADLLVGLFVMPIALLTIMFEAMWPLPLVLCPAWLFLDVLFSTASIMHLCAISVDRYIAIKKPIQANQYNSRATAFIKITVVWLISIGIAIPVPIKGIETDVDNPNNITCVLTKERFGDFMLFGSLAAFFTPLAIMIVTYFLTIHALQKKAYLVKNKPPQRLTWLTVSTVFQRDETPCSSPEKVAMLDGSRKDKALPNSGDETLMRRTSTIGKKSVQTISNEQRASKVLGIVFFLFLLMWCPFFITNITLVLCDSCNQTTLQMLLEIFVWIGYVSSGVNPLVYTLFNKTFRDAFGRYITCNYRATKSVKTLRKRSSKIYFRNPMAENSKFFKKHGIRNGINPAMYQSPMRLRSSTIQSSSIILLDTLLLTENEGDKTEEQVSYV
Adenosine receptor A2a, sequence (P29274 whole entry): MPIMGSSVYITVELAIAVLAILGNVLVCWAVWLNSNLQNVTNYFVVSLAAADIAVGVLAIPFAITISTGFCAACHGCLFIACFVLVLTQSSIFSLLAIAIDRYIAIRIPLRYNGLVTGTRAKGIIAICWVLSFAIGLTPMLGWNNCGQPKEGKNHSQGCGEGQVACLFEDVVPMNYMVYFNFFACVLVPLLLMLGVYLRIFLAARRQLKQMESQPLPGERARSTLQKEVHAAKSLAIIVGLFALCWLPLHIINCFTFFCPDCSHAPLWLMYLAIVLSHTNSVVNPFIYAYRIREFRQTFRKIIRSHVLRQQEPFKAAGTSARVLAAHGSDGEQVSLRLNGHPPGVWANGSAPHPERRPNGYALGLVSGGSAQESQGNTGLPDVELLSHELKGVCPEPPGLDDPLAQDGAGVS
Gamma-aminobutyric acid receptor subunit alpha-1, sequence (P62813 whole entry): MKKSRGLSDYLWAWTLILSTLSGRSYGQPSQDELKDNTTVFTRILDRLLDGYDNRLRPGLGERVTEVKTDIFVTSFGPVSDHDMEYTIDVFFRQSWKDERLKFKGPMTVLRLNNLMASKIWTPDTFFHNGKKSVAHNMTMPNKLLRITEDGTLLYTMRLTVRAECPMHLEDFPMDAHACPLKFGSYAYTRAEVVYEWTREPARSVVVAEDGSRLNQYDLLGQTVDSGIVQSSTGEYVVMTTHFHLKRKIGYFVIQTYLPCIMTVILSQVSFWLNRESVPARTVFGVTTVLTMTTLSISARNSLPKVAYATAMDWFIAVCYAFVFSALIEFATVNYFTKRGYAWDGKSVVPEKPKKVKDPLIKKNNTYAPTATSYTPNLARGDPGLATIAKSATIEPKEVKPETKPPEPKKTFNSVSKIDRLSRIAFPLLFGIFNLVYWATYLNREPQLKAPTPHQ
Neuronal acetylcholine receptor subunit alpha-4, sequence (P43681 whole entry): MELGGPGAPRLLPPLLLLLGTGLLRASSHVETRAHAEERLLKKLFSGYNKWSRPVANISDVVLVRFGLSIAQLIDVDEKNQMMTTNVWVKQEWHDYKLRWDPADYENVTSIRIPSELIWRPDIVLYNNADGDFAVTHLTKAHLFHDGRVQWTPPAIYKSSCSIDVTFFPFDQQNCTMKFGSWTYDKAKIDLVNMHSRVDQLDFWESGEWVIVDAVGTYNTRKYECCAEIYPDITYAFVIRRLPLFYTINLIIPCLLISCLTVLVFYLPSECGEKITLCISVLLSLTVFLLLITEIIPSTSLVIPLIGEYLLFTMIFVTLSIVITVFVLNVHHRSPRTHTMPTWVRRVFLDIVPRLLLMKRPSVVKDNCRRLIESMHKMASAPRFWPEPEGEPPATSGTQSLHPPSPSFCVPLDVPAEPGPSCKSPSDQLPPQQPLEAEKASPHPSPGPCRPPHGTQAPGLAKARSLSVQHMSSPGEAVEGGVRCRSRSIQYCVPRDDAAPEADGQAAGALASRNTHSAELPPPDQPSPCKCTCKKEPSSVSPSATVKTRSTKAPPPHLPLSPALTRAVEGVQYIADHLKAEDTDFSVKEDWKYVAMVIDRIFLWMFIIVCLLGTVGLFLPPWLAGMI
Sodium-dependent dopamine transporter, sequence (Q01959 whole entry): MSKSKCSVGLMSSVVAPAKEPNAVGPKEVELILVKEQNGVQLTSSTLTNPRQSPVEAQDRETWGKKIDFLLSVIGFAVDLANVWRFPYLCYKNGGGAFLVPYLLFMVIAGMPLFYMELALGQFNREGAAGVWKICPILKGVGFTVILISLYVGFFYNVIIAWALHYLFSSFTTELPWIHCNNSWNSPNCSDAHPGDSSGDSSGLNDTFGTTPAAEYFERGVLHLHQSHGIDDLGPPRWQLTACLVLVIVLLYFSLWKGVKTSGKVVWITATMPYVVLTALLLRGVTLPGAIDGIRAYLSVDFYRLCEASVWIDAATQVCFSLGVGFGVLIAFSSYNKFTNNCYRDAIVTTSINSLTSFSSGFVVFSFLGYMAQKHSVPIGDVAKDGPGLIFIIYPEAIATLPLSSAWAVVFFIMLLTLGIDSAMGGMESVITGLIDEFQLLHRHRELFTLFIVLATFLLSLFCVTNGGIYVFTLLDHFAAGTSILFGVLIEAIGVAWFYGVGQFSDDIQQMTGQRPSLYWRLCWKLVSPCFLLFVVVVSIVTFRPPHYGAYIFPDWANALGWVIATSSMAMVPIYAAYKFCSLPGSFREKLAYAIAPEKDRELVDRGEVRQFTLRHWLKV
Beta-2 adrenergic receptor, sequence (P07550 whole entry): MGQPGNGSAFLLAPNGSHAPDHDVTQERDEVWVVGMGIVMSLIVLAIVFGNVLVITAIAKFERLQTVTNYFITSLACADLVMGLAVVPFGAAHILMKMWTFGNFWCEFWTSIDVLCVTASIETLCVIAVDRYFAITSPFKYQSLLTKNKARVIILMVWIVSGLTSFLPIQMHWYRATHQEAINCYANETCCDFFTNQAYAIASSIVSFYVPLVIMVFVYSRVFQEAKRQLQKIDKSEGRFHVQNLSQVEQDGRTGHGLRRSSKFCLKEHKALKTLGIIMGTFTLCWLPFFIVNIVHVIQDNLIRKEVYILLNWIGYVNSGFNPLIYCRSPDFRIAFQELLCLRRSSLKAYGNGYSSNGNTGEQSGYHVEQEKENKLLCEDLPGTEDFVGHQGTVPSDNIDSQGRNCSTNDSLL
Motilin receptor, sequence (O43193 whole entry): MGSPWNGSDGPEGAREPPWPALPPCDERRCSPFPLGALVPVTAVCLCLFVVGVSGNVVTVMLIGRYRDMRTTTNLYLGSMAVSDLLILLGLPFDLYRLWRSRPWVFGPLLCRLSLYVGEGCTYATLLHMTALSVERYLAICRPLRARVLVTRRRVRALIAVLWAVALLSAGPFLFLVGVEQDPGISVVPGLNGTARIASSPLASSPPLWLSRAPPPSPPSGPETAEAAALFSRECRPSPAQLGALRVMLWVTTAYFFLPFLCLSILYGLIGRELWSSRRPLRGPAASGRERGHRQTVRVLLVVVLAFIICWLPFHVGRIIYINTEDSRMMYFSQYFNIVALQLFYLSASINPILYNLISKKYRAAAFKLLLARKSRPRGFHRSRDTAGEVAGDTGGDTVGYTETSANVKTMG
Voltage-gated inwardly rectifying potassium channel KCNH2, sequence (Q12809 whole entry): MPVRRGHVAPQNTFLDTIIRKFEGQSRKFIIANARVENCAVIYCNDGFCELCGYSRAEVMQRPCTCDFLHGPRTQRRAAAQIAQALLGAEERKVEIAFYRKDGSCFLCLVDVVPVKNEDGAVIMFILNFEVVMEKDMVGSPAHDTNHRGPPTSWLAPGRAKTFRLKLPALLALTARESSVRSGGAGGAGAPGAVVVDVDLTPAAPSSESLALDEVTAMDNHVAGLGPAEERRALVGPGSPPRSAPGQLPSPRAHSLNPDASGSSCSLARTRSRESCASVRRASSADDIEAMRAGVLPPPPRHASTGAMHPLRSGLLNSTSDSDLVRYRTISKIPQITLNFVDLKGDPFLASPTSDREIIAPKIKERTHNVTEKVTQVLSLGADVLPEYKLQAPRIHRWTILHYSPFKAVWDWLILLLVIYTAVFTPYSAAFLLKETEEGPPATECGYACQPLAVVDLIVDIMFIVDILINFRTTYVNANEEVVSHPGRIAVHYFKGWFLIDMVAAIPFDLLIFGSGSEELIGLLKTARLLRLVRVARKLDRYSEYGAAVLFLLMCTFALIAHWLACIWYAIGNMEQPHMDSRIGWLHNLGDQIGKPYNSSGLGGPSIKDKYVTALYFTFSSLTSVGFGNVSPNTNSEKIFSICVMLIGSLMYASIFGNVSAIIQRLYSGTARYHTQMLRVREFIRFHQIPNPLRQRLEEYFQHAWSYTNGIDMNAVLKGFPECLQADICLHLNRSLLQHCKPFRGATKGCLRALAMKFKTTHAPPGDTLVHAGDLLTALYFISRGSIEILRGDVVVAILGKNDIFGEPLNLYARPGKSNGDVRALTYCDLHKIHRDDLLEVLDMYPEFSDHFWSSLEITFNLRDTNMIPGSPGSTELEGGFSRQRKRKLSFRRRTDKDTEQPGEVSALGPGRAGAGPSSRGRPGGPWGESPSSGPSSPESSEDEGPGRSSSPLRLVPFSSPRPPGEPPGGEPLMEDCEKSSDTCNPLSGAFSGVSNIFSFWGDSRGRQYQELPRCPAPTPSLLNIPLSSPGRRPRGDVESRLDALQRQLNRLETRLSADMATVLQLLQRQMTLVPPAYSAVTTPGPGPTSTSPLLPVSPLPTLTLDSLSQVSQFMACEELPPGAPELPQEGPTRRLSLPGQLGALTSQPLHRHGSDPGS
Vasopressin V2 receptor, sequence (P30518 whole entry): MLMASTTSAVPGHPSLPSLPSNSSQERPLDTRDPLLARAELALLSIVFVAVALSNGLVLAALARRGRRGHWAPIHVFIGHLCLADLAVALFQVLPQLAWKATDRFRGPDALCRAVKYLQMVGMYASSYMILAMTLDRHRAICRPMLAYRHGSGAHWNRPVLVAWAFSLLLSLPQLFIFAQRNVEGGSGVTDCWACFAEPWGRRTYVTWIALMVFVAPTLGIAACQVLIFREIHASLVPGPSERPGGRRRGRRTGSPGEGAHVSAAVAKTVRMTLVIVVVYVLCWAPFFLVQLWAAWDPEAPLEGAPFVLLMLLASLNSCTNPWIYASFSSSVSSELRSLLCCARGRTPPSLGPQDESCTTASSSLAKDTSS

For `O=C(O)CCCCC1CCSS1` (stereo not drawn) [LIPOIC ACID, ALPHA], which AC50 [1] is on record?
The AC50 was over 30 µM.

`COc1cc2c(cc1OC)C(CCc1ccc(Cl)cc1)N(C)CC2` (configuration not stated) [METHOPHOLINE] was tested. Which AC50 [2] did it give?
Its AC50 is over 30 µM.

And the AC50 [3]?
The AC50 was over 10 µM.

And the AC50 [4]?
The AC50 was over 30 µM.

And the AC50 [5]?
Its AC50 is over 30 µM.

What about the AC50 [6] of the same compound?
Its AC50 is over 10 µM.

And the AC50 [7]?
Its AC50 is over 10 µM.

And the AC50 [8]?
Its AC50 is over 10 µM.

And the AC50 [9]?
The AC50 was over 30 µM.

What about the AC50 [10] of the same compound?
The AC50 was over 30 µM.

What about the AC50 [11] of the same compound?
The AC50 was over 30 µM.

And the AC50 [12]?
The AC50 was over 10 µM.

And the AC50 [13]?
The AC50 was over 30 µM.

And the AC50 [14]?
The AC50 was 28.7 µM.

And the AC50 [15]?
The AC50 was over 30 µM.

What about the AC50 [16] of the same compound?
Its AC50 is over 30 µM.

Which results are given for `C/C(=C\C(=O)OCCCCCCCCC(=O)O)C[C@@H]1OC[C@H](C[C@@H]2O[C@H]2[C@@H](C)[C@H](C)O)[C@@H](O)[C@H]1O` [MUPIROCIN]?
AC50 [2]: > 10 µM; AC50 [3]: > 10 µM; AC50 [4]: > 30 µM; AC50 [5]: > 10 µM; AC50 [6]: > 10 µM; AC50 [7]: > 10 µM; AC50 [8]: > 10 µM; AC50 [9]: > 10 µM; AC50 [10]: > 30 µM; AC50 [11]: > 30 µM; AC50 [1]: > 30 µM; AC50 [12]: > 10 µM; AC50 [13]: > 10 µM; AC50 [14]: > 30 µM; AC50 [15]: > 10 µM; AC50 [16]: > 10 µM

For `O=C1CN=C(c2ccccc2)c2cc([N+](=O)[O-])ccc2N1` [NITRAZEPAM], which AC50 [2] is on record?
Its AC50 is over 10 µM.

And the AC50 [3]?
The AC50 was over 30 µM.

And the AC50 [4]?
The AC50 was over 30 µM.

What about the AC50 [5] of the same compound?
Its AC50 is over 10 µM.

And the AC50 [7]?
Its AC50 is over 10 µM.

What about the AC50 [8] of the same compound?
Its AC50 is over 10 µM.

What about the AC50 [9] of the same compound?
Its AC50 is over 10 µM.

And the AC50 [10]?
Its AC50 is over 30 µM.

What about the AC50 [11] of the same compound?
The AC50 was 30 µM.

And the AC50 [1]?
Its AC50 is over 30 µM.

What about the AC50 [12] of the same compound?
The AC50 was over 10 µM.

What about the AC50 [13] of the same compound?
Its AC50 is over 10 µM.

And the AC50 [14]?
The AC50 was over 10 µM.

What about the AC50 [15] of the same compound?
The AC50 was over 10 µM.

And the AC50 [16]?
The AC50 was over 10 µM.
